Results: patent US20240408086A1, “USE OF LUVADAXISTAT FOR THE TREATMENT OF COGNITIVE IMPAIRMENT” (TAKEDA PHARMACEUTICAL COMPANY LIMITED, priority 2021, published 2024)

Test system: adult patients with persistent negative symptoms of schizophrenia
Assay type: in vivo, human
Description: To assess changes in cognitive impairment associated with schizophrenia (CIAS), secondary endpoints included the 12-week change from baseline in the Brief Assessment of Cognition in Schizophrenia (BACS) composite score, a measure of cognition across multiple domains, and the Schizophrenia Cognition Rating Scale (SCORS) score, a measure of day-to-day cognitive functioning requiring input from an adult informant. Secondary endpoints were not corrected for multiplicity.
The BACS is specifically designed to measure treatment-related improvements in cognition and includes alternate forms. BACS is a reliable and sensitive measure of cognitive function in schizophrenia. The BACS is a cognition assessment battery that assesses 6 domains of cognitive function found to be consistently impaired in schizophrenia: verbal memory; working memory; motor speed; attention; executive functions; and verbal fluency. The primary measure from each test of the BACS is standardized by creating T-scores whereby the mean of the test session of a matched reference healthy participant is set to 50 and the standard deviation set to 10.

[1] = 125 mg once daily, MMRM, preliminary analysis
[2] = 125 mg once daily, preliminary analysis

With `O=c1[nH]nc(CCc2ccc(C(F)(F)F)cc2)cc1O` [Compound (I), luvadaxistat] as the compound, how does the “BACS Attention Cognition Domain, Difference from Placebo for Week 6, LS Mean (SE)” value (50 mg, Week 6, MMRM) read?
The value was −0.1 (1.12).

What about the “BACS Executive Functions Cognition Domain, Adjusted Change from Baseline to Week 6, LS Mean (SE)” value (50 mg, Week 6, MMRM) of the same compound?
The value was 0.9 (1.22).

And the “BACS Executive Functions Cognition Domain, Difference from Placebo for Week 6, LS Mean (SE)” value (50 mg, Week 6, MMRM)?
The value was 2.1 (1.53).

And the “BACS Verbal Fluency Cognition Domain, Adjusted Change from Baseline to Week 6, LS Mean (SE)” value (50 mg, Week 6, MMRM)?
The value was −0.3 (0.70).

And the “BACS Verbal Fluency Cognition Domain, Difference from Placebo for Week 6, LS Mean (SE)” value (50 mg, Week 6, MMRM)?
Its value is −0.5 (0.87).

And the “BACS Attention Cognition Domain, Change from Baseline to Week 12, Mean (SD)” value (50 mg, Week 12)?
The value was 2.2 (6.95).

And the “BACS Attention Cognition Domain, Change from Baseline to Week 12, Median” value (50 mg, Week 12)?
Its value is 2.0.

And the “BACS Attention Cognition Domain, Week 12, Mean (SD)” value (50 mg, Week 12)?
The value was 38.0 (11.83).

What about the “BACS Attention Cognition Domain, Week 12, Median” value (50 mg, Week 12) of the same compound?
Its value is 39.0.

What about the “BACS Executive Functions Cognition Domain, Change from Baseline to Week 12, Mean (SD)” value (50 mg, Week 12) of the same compound?
Its value is 2.6 (7.73).

What about the “BACS Executive Functions Cognition Domain, Change from Baseline to Week 12, Median” value (50 mg, Week 12) of the same compound?
The value was 1.0.

And the “BACS Executive Functions Cognition Domain, Week 12, Mean (SD)” value (50 mg, Week 12)?
Its value is 46.4 (10.55).

What about the “BACS Executive Functions Cognition Domain, Week 12, Median” value (50 mg, Week 12) of the same compound?
Its value is 49.5.

And the “BACS Verbal Fluency Cognition Domain, Change from Baseline to Week 12, Mean (SD)” value (50 mg, Week 12)?
The value was 1.5 (5.87).

And the “BACS Verbal Fluency Cognition Domain, Change from Baseline to Week 12, Median” value (50 mg, Week 12)?
The value was 0.0.

What about the “BACS Verbal Fluency Cognition Domain, Week 12, Mean (SD)” value (50 mg, Week 12) of the same compound?
The value was 41.8 (10.41).

What about the “BACS Verbal Fluency Cognition Domain, Week 12, Median” value (50 mg, Week 12) of the same compound?
The value was 40.0.

And the “BACS Attention Cognition Domain, Adjusted Change from Baseline to Week 12, LS Mean (SE)” value (50 mg, Week 12, MMRM)?
Its value is 2.3 (1.02).

And the “BACS Attention Cognition Domain, Difference from Placebo for Week 12, LS Mean (SE)” value (50 mg, Week 12, MMRM)?
The value was 0.4 (1.28).

What about the “BACS Executive Functions Cognition Domain, Adjusted Change from Baseline to Week 12, LS Mean (SE)” value (50 mg, Week 12, MMRM) of the same compound?
Its value is 1.8 (1.09).

And the “BACS Executive Functions Cognition Domain, Difference from Placebo for Week 12, LS Mean (SE)” value (50 mg, Week 12, MMRM)?
The value was 1.2 (1.36).

And the “BACS Verbal Fluency Cognition Domain, Adjusted Change from Baseline to Week 12, LS Mean (SE)” value (50 mg, Week 12, MMRM)?
Its value is 1.2 (0.85).

And the “BACS Verbal Fluency Cognition Domain, Difference from Placebo for Week 12, LS Mean (SE)” value (50 mg, Week 12, MMRM)?
The value was 0.2 (1.07).

What about the “BACS Verbal Memory Cognition Domain, Difference from Placebo for Week 6, LS Mean (SE)” value (125 mg once daily, MMRM, one-sided unadjusted p 0.025, preliminary analysis) of the same compound?
The value was 2.5 (1.29).

And the “BACS Composite Score, Difference from Placebo for Week 6, LS Mean (SE)” value (125 mg once daily, MMRM, one-sided unadjusted p 0.038, preliminary analysis)?
The value was 1.8 (1.02).

What about the “BACS Motor Speed Cognition Domain, Difference from Placebo for Week 12, LS Mean (SE)” value (125 mg once daily, MMRM, one-sided unadjusted p 0.067, preliminary analysis) of the same compound?
The value was 1.8 (1.18).

And the “BACS Composite Score, Difference from Placebo for Week 12, LS Mean (SE)” value (125 mg once daily, MMRM, one-sided unadjusted p 0.095, preliminary analysis)?
Its value is 1.5 (1.16).

And the “BACS Verbal Memory Cognition Domain, Difference from Placebo for Week 12, LS Mean (SE)” value (125 mg once daily, MMRM, one-sided unadjusted p 0.164, preliminary analysis)?
The value was 1.4 (1.44).

And the “BACS Working Memory Cognition Domain, Difference from Placebo for Week 6, LS Mean (SE)” value (125 mg once daily, MMRM, one-sided unadjusted p 0.239, preliminary analysis)?
Its value is 0.8 (1.16).

And the “BACS Working Memory Cognition Domain, Difference from Placebo for Week 12, LS Mean (SE)” value (125 mg once daily, MMRM, one-sided unadjusted p 0.406, preliminary analysis)?
Its value is 0.3 (1.35).

And the “BACS Motor Speed Cognition Domain, Difference from Placebo for Week 6, LS Mean (SE)” value (125 mg once daily, MMRM, one-sided unadjusted p 0.753, preliminary analysis)?
Its value is −0.9 (1.26).

What about the “BACS Composite Score, Adjusted Change from Baseline to Week 6, LS Mean (SE)” value [1] of the same compound?
The value was 1.4 (0.80).

What about the “BACS Composite Score, Adjusted Change from Baseline to Week 12, LS Mean (SE)” value [1] of the same compound?
Its value is 2.3 (0.91).

And the “BACS Motor Speed Cognition Domain, Adjusted Change from Baseline to Week 6, LS Mean (SE)” value [1]?
The value was −1.0 (0.98).

What about the “BACS Motor Speed Cognition Domain, Adjusted Change from Baseline to Week 12, LS Mean (SE)” value [1] of the same compound?
The value was 1.3 (0.93).

What about the “BACS Verbal Memory Cognition Domain, Adjusted Change from Baseline to Week 6, LS Mean (SE)” value [1] of the same compound?
The value was 1.2 (1.01).

What about the “BACS Verbal Memory Cognition Domain, Adjusted Change from Baseline to Week 12, LS Mean (SE)” value [1] of the same compound?
Its value is 0.8 (1.13).

And the “BACS Working Memory Cognition Domain, Adjusted Change from Baseline to Week 6, LS Mean (SE)” value [1]?
Its value is 0.9 (0.90).

What about the “BACS Working Memory Cognition Domain, Adjusted Change from Baseline to Week 12, LS Mean (SE)” value [1] of the same compound?
The value was 1.0 (1.06).

And the “BACS Composite Score, Change from Baseline to Week 6, Mean (SD)” value [2]?
The value was 1.9 (4.95).

And the “BACS Composite Score, Change from Baseline to Week 6, Median” value [2]?
Its value is 2.0.

What about the “BACS Composite Score, Change from Baseline to Week 12, Mean (SD)” value [2] of the same compound?
Its value is 2.9 (6.54).

And the “BACS Composite Score, Change from Baseline to Week 12, Median” value [2]?
Its value is 3.5.

And the “BACS Composite Score, Week 6, Mean (SD)” value [2]?
Its value is 35.6 (14.55).

And the “BACS Composite Score, Week 6, Median” value [2]?
Its value is 37.0.

What about the “BACS Composite Score, Week 12, Mean (SD)” value [2] of the same compound?
The value was 37.1 (15.02).

What about the “BACS Composite Score, Week 12, Median” value [2] of the same compound?
The value was 38.5.

What about the “BACS Motor Speed Cognition Domain, Change from Baseline to Week 6, Mean (SD)” value [2] of the same compound?
The value was 0.0 (5.97).

What about the “BACS Motor Speed Cognition Domain, Change from Baseline to Week 6, Median” value [2] of the same compound?
Its value is 0.5.

And the “BACS Motor Speed Cognition Domain, Change from Baseline to Week 12, Mean (SD)” value [2]?
The value was 2.5 (7.60).

And the “BACS Motor Speed Cognition Domain, Change from Baseline to Week 12, Median” value [2]?
The value was 2.0.

And the “BACS Motor Speed Cognition Domain, Week 6, Mean (SD)” value [2]?
The value was 39.6 (10.80).

What about the “BACS Motor Speed Cognition Domain, Week 6, Median” value [2] of the same compound?
Its value is 39.0.

What about the “BACS Motor Speed Cognition Domain, Week 12, Mean (SD)” value [2] of the same compound?
The value was 42.6 (10.35).

And the “BACS Motor Speed Cognition Domain, Week 12, Median” value [2]?
The value was 42.0.

And the “BACS Verbal Memory Cognition Domain, Change from Baseline to Week 6, Mean (SD)” value [2]?
The value was 1.8 (7.71).

What about the “BACS Verbal Memory Cognition Domain, Change from Baseline to Week 6, Median” value [2] of the same compound?
Its value is 2.5.

And the “BACS Verbal Memory Cognition Domain, Change from Baseline to Week 12, Mean (SD)” value [2]?
Its value is 1.6 (8.07).

And the “BACS Verbal Memory Cognition Domain, Change from Baseline to Week 12, Median” value [2]?
The value was 1.0.

And the “BACS Verbal Memory Cognition Domain, Week 6, Mean (SD)” value [2]?
The value was 42.4 (12.62).

And the “BACS Verbal Memory Cognition Domain, Week 6, Median” value [2]?
Its value is 42.0.

And the “BACS Verbal Memory Cognition Domain, Week 12, Mean (SD)” value [2]?
The value was 42.3 (13.54).

And the “BACS Verbal Memory Cognition Domain, Week 12, Median” value [2]?
Its value is 42.5.

And the “BACS Working Memory Cognition Domain, Change from Baseline to Week 6, Mean (SD)” value [2]?
Its value is 1.5 (5.89).
